Data set [1] concerns the target T1, VR1 receptor (capsaicin induced current in dorsal root ganglion (DRG) neurons) (Rattus norvegicus, UniProt O35433).
T1 construct: Dorsal root ganglion (DRG) neurons were recovered from either neonatal or adult rats; endogenous in cells; host or cells: primary rat dorsal root ganglion neurons
Briefly: Whole-cell patch clamp electrophysiology, capsaicin induced current in DRG neurons. To be noted: DRG neuron; 100 nM, treatment time 20 seconds; 500 nM capsaicin, rat DRG neurons. In kind it is cell-based. The procedure:
Dorsal root ganglion (DRG) neurons were recovered from either neonatal or adult rats and plated onto poly-D-lysine coated glass coverslips. The plated neurons were transferred into a chamber to allow drug solutions to be added to the cells using a computer-controlled solenoid-valve based perfusion system. The cells were imaged using standard DIC optics. Cells were patched using finely-pulled glass electrodes. Voltage-clamp electrophysiology experiments were carried out using an Axon Instruments Multiclamp amplified controlled by pCLAMP8 software.
The cells were placed into a whole-cell voltage clamp and help at a voltage of −80 mV while monitoring the membrane current in gap-free recording mode. 500 nM capsaicin was added for 30 seconds as a control. Test compounds at various concentrations at ranging from (10-1000 nM) were added to the cells for 1 minute prior to a 30 second capsaicin application. Differences between control experiments and drug positive capsaicin experiments were used to determine the efficacy of each test compound. All compounds that inhibited capsaicin induced current greater than 50% were considered positives.

The nature of data set [2]: Pharmacokinetic profile after intravenous and oral administration. In kind it is in vivo. To be noted: male, Sprague-Dawley, rat, plasma, rats. The procedure: The pharmacokinetic profile of Compound 18 was evaluated following intravenous and oral administration in rats. Sprague-Dawley male rats obtained from Charles River, San Diego, Calif. were acclimated for 24 hours.
Compound 18 was formulated at a concentration of 0.5 mg/mL for IV administration at a 1 mg/kg dose and 1 mg/mL for oral administration at a 5 mg/kg dose. All animals were weighed before dosing. The body weight was used to calculate the actual dose for each animal. The intravenous dose was administered through the jugular vein catheter in less than 1 minute. The oral dose volume was 1.5 mL for all PO rats administered through oral lavage.
For IV dosing, blood samples were collected using a pre-heparinized syringe via the carotid artery catheter before dosing and at t=2, 5, 15, 30, 60, 120, 180, 360, and 480 minutes post dosing. For PO dosing, blood samples were collected using a pre-heparinized syringe via the carotid artery catheter before dosing and at t=5, 15, 30, 60, 120, 180, 360, and 480 minutes post dosing. 250 uL of blood was obtained at each time point from each animal. Equal volumes of 0.9% normal saline were replaced to prevent dehydration. The whole blood samples were maintained on ice until centrifugation. Blood samples were centrifuged at 14,000 rpm for 10 minutes at 4° C., and the upper plasma layer was transferred into a clean vial and store at −80° C.

Data set [3] is described as follows: Plasma protein binding, equilibrium dialysis, human plasma. In kind it is in vitro ADME. To be noted: human plasma (sodium citrate), pH 7.4, 37° C., at least 22 hours, read-out: human plasma protein binding (% Bound). The procedure: Membranes from Harvard/Amika with a molecular weight cutoff of 5,000 were rinsed with dH2O then placed in pH 7.4 PBS supplied by Gibco. The membranes were allowed to soak for 1 hour. A stock of the test article was pooled with Warfarin, Atropine at 2 mM in DMSO. The test article was then dosed into human plasma in sodium citrate, Rat Plasma, and Mouse Plasma to a final 10 μM concentration (0.5% DMSO v/v). The pre-soaked membranes were then placed into dialysis chambers. 500 μL of PBS was added to one side of the chamber, and 500 μL of the Matrix containing the test article was added to the other side of the chamber.
The chambers were then placed into an enclosed, heated rocker, which was pre-warmed to 37° C. and allowed to reach equilibrium for at least 22 hours. After 22 hours both sides were sampled. 100 μL of the donor side was added to 500 μL of PBS. 100 μL of the PBS side was added to 20 μL of fresh matrix. Samples then were crashed with 1:1 Acetonitrile and centrifuged at 10,000 RPM for 10 minutes. […]
Standards were prepared in a 1:5 plasma: PBS mixture at 5, 1.5, 0.5, 0.15, 0.05, 0.015 and 0.005 μM concentrations. […] Protein binding values were calculated as follows: % Bound=[(Concentration in Donor−Concentration in Receiver)/(Concentration in Donor)]×100. % Recovery=[(Concentration in donor+Concentration in Receiver)]/(Concentration in Normal Initial)]×100
For orientation: In equilibrium dialysis free small molecules cross a membrane that holds back macromolecules.

For a further data set, the target named is CYP2C19 (Homo sapiens, UniProt P33261). As to the kind of experiment: Cytochrome p450 inhibition assessment, CYP2C19. In kind it is biochemical. The following applies: estimated, Hill equation fit. The procedure:
(§1) The ability of test compounds to inhibit five major human cytochrome p450 isozymes was evaluated. Cytochrome p450 inhibition assays were performed on 96-well microtiter assay plates according to the protocols described in Gentest P450 inhibition instruction manuals. The assays were performed in duplicate at 8 concentrations with the upper concentration of 100 μM followed by a 1:3 serial dilution. Reactions were initiated by the addition of 100 μL of enzyme/substrate mix to 100 μL of cofactor/serial dilution mix, and terminated by addition of 75 μL of a 4:1 acentonitrile: 0.5 M Tris base solution or by 2N NaOH for CYP3A4/DBF. Fluorescence was measured using a fluorescence plate reader (FLUOstar model 403, BMG Lab Technologies, Durham, N.C.). For reactions with inhibition greater than 50%, IC50 values were determined by fitting the data to the Hill equation using software GraphPad Prism (Version 4.02, GraphPad Software, San Diego, Calif.).

For another data set, the target named is T2, CYP1A2 (Homo sapiens, UniProt P05177).
T2 sequence (P05177 1-516): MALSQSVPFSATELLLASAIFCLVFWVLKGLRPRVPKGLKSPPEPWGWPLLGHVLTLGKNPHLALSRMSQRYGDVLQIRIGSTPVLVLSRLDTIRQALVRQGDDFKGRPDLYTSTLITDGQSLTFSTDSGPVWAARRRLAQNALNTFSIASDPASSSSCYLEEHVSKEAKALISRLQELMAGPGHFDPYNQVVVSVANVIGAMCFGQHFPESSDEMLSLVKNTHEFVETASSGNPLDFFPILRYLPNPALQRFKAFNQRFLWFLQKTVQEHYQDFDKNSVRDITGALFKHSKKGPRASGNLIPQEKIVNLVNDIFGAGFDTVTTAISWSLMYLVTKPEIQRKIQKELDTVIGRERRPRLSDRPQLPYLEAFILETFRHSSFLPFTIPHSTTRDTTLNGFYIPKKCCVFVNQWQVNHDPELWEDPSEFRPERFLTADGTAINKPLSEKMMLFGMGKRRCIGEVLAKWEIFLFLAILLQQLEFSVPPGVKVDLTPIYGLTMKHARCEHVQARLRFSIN
Briefly: Cytochrome p450 inhibition assessment, CYP1A2. In kind it is biochemical. The following applies: estimated, Hill equation fit. The procedure:
as §1

[4] abbreviates: route not stated (IV 1 mg/kg, PO 5 mg/kg).

T1 sequence (O35433 whole entry): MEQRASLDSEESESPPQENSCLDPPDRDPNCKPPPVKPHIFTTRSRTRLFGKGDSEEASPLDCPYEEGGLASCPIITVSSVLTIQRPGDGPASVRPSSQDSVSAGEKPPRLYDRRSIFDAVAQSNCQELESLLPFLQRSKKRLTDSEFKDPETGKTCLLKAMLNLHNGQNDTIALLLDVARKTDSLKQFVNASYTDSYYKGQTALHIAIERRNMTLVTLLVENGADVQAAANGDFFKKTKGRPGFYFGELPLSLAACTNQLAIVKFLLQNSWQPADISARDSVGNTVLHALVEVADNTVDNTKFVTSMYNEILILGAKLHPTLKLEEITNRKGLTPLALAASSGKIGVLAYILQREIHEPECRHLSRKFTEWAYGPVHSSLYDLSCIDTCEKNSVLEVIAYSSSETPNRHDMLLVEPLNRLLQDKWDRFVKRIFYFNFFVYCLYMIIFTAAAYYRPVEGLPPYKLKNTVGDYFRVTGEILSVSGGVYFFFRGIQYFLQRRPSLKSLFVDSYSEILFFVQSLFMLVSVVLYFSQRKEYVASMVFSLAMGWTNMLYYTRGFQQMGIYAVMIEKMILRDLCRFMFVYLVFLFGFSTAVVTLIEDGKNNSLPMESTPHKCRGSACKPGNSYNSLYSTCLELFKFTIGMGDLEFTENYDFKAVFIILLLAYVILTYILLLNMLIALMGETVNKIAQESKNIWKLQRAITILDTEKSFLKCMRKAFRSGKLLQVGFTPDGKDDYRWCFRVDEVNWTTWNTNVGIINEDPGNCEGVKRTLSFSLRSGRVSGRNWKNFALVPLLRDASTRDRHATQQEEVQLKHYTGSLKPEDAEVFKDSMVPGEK
CYP2C19, sequence (P33261 whole entry): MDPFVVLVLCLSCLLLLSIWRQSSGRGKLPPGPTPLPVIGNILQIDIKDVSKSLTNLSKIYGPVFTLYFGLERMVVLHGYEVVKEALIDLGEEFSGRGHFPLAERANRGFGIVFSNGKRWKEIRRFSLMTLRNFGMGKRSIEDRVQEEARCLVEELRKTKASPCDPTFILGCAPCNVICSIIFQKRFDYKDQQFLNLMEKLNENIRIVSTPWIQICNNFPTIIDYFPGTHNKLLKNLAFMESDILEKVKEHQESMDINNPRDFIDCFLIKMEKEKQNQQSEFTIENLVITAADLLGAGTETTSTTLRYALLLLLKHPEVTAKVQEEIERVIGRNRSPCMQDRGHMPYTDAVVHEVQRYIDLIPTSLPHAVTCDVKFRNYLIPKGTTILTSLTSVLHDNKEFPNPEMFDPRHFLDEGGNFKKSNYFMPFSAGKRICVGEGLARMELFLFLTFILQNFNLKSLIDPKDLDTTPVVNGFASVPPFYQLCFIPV

Regarding `COc1ccc(CCNC(=O)c2ccc(-c3ncccc3Cl)cc2)cc1OC` [Compound 18], the inhibition at 0.1 µM in data set [1] was under 75%. In data set [2] (PO 5 mg/kg vs IV 1 mg/kg, read-out: Oral Bioavailability (% F)), the bioavailability amounted to 30.1%. Moreover, the highest level in data set [2] (setting [4]) (Cmax) was 1750 nM. The Tmax in data set [2] (setting [4]) is 3 h. In addition, the clearance in data set [2] (route not stated (IV 1 mg/kg, PO 5 mg/kg), read-out: Clearance (Cl) (converted)) is 8.83 mL/min/kg. The Vd in data set [2] (route not stated (IV 1 mg/kg, PO 5 mg/kg), read-out: Volume of distribution (Vd)) stood at 2.82 L/kg. Besides, in data set [2] (route not stated (IV 1 mg/kg, PO 5 mg/kg), read-out: half life (t½) (converted)), the half-life was 3.71 h. For the same compound, the fraction unbound at 22 h, 10 µM in data set [3] was under 0.002. Also, the IC50 is 26.9 µM at CYP2C19 and 97.5 µM at CYP1A2.

In general, inhibition refers to the drop in the measured response relative to a control, in per cent. Usually bioavailability stands for the share of a dose that reaches the circulation, judged against a reference dose that is usually intravenous. By Cmax is commonly meant the peak of the concentration-time curve. In general, Tmax refers to the time at which the peak concentration occurs. A word on the half-life: it is the time in which the quantity being followed falls by half. The term IC50 denotes the concentration that gives 50% inhibition.

The record behind these values is patent US7338950B2, “Amide compounds as ion channel ligands and uses thereof” (Renovis, Inc., priority 2003, dated 2008).
